Test results reported in patent US9120744B2, “Plasminogen activator inhibitor-1 inhibitors and methods of use thereof to modulate lipid metabolism” (THE REGENTS OF THE UNIVERSITY OF MICHIGAN, priority 2007, dated 2015).
Values belong to the compound of their own block, whether it stands above or below them.

Columns and labels:
[1] = target: T1, recombinant active human PAI-1 (Homo sapiens (Human), UniProt P05121); assay: pH dependence of PAI-1 inhibition, fluorogenic uPA (or tPA) assay; type: biochemical; details: for effect of pH on PAI-1 inhibition (in words): pH 6.5 to 8.5
[2] = target: T2, PAI-1 (Homo sapiens (Human), UniProt P05121); assay: Surface plasmon resonance, loss of PAI-1 binding to immobilized anhydrotrypsin; details: PAI-1 2 nM preincubated with compound, SPR; read-out: Apparent KD (nM) ± SEM
Target sequence in this assay (P05121 24-402): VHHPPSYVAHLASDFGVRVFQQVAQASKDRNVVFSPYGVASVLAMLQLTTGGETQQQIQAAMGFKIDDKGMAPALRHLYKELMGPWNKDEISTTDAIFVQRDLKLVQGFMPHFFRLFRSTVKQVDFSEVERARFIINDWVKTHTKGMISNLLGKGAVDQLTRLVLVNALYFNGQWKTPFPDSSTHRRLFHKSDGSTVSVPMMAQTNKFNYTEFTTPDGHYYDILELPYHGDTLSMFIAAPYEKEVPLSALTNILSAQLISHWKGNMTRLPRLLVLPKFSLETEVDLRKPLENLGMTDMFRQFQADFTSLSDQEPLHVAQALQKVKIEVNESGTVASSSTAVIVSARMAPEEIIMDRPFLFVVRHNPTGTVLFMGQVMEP

[3] = target: T1, recombinant active human PAI-1; assay: Fluorometric IC50 plate assay (PAI-1 inhibition of uPA, Z-Gly-Gly-Arg-AMC); type: biochemical; details: in vitro, PAI-1 1 nM, uPA 2.5 nM, pH 7.8, 10% DMSO; ND = not detected, e.g. no inhibition
[4] = target: anti-thrombin III (ATIII) (Homo sapiens (Human), UniProt P01008); assay: Specificity assay on anti-thrombin III (thrombin activity); type: biochemical; details: pH 7.5 or pH 8.5, with heparin
[5] = target: PAI-1/vitronectin (Homo sapiens (Human), UniProt P05121); assay: Inhibition of PAI-1 in the presence of vitronectin, fluorogenic uPA assay; type: biochemical
[6] = target: active murine PAI-1 (Mus musculus (Mouse), UniProt P22777); assay: In vivo efficacy in transgenic mice that overexpress PAI-1, active PAI-1 in plasma; details: 3, 10, 30 mg/kg into the IVC, 1 hour
[7] = test system: PAI-1; assay: PAI-1 activity assay in ex vivo plasma with and without vitronectin; type: biochemical; details: plasma of PAI-1 null or PAI-1/vitronectin null mice, 20 nM PAI-1
[8] = test system: PAI-1 null mice; assay: Oral PAI-039 in PAI-1 null mice, lipid analysis; type: in vivo, mouse; details: two weeks in chow
[9] = target: T2, PAI-1; details: cited from earlier work
Target sequence in this assay (P05121 24-402, species assumed): as the sequence (P05121 24-402) above

[10] = test system: C57BL/6J and 129 mice; assay: Oral PAI-039 in chow for two weeks, plasma PAI-1 activity and lipid profiles; type: in vivo, mouse
[11] = target: T1, recombinant active human PAI-1; assay: Chromogenic uPA assay of PAI-1 inhibition (pGlu-Gly-Arg pNA); type: biochemical; details: some experiments (not shown in FIG. 2)
[12] = target: T1, recombinant active human PAI-1; assay: High throughput uPA chromogenic screen for PAI-1 inactivators; type: biochemical; details: 10 μM compound; hit = more than 3 standard deviations above control
[13] = target: T1, recombinant active human PAI-1; assay: β-trypsin screening assay for PAI-1 inhibitors; type: biochemical; details: 10 μM compound; hit = more than 3 standard deviations above control;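 further: fluorogenic readout with PAI-1 and β-trypsin at 10:1 molar ratio, untreated PAI-1 wells set as 100% PAI-1 activity and β-trypsin alone as 0%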
[14] = target: T2, PAI-1; assay: SDS-PAGE analysis of PAI-1:plasminogen activator complex formation; type: biochemical; details: tannic acid 0-100 μM, uPA or tPA
Target sequence in this assay (P05121 24-402): as above

[15] = target: recombinant active human PAI-1 preincubated with vitronectin (Homo sapiens (Human), UniProt P05121); assay: Inhibition of vitronectin-bound PAI-1 by tannic acid, chromogenic uPA assay; type: biochemical; details: 5-fold molar excess of vitronectin
[16] = target: active mouse PAI-1 (Mus musculus (Mouse), UniProt P22777); assay: Ex vivo plasma Luminex assay, mouse plasma spiked with active mouse PAI-1; type: biochemical; details: mouse plasma spiked with active mouse PAI-1 3-4 ng/mL
active mouse PAI-1, sequence (P22777 23-402): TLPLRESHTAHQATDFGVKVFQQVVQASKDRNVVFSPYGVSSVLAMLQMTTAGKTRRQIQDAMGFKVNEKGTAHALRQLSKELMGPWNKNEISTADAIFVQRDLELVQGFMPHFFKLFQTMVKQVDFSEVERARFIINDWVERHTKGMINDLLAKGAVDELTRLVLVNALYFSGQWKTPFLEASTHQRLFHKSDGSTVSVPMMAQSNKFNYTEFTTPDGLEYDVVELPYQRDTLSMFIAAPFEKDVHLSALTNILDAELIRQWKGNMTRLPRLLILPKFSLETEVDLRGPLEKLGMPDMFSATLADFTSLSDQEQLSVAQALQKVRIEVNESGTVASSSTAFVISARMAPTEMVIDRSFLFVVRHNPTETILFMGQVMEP

T1 sequence (P05121 24-402): as the sequence (P05121 24-402) above
PAI-1/vitronectin, sequence (P05121 24-402): as above
anti-thrombin III (ATIII), sequence (P01008 33-464, species assumed): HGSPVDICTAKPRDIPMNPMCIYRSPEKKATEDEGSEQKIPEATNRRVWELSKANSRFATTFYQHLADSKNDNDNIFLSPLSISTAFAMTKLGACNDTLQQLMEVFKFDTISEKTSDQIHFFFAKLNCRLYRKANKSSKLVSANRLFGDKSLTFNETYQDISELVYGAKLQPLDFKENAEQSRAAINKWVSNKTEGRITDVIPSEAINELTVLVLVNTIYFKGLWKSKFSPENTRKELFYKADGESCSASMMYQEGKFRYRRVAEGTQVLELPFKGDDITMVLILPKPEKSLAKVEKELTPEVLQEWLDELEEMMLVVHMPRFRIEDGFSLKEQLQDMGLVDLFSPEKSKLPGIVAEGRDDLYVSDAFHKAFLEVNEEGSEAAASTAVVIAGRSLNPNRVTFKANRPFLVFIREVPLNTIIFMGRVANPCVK
recombinant active human PAI-1 preincubated with vitronectin, sequence (P05121 24-402): as the sequence (P05121 24-402) above
recombinant active human PAI-1 preincubated with vitronectin, sequence (P04004 20-478 partner): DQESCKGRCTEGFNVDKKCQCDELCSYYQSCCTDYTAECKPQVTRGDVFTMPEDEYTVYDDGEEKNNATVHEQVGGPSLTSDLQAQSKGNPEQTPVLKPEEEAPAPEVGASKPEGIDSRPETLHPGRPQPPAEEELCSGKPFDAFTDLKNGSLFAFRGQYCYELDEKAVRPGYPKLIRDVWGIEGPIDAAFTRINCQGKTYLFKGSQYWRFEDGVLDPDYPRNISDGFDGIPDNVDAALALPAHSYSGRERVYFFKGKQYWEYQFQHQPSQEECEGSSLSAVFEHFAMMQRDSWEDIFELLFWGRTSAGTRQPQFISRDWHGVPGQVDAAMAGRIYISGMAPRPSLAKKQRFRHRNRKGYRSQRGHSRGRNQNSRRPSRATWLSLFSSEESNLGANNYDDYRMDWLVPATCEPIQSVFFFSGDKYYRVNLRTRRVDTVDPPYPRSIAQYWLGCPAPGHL
active murine PAI-1, sequence (P22777 23-402): as the sequence (P22777 23-402) above

IC50 ([1]; pH 6.5): 325000 nM | IC50 ([1]; pH 7.5): 288 nM | IC50 ([1]; pH 8.5): 64 nM | Kd [2]: 23 ± 1 nM | IC50 [3]: 370 nM | effect on ATIII activity (in words) [4]: no effect | change of IC50 in the presence of vitronectin ([5]; at each pH (7.5 and 8.5)): 1 log value
SMILES: O=C(OCCOC(=O)c1cc(O)c(O)c(O)c1)c1cc(O)c(O)c(O)c1 [CDE-008]
effect of pH on PAI-1 inhibition (in words) [1]: more effective inhibitor at pH 8.5 than at pH 7.5 | inhibition of PAI-1 in the presence of vitronectin (in words) ([5]; 200 nM vitronectin, pH 7.5 and pH 8.5): inhibits PAI-1 in the presence of vitronectin at both pH 7.5 and pH 8.5

active PAI-1 in plasma after treatment (in words) [6]: dose-dependent decrease in active PAI-1
SMILES: O=C(OC[C@H]1OC(OC(=O)c2cc(O)c(O)c(O)c2)[C@H](OC(=O)c2cc(O)c(O)c(O)c2)[C@@H](OC(=O)c2cc(O)c(O)c(O)c2)[C@H]1OC(=O)c1cc(O)c(O)c(O)c1)c1cc(O)c(O)c(O)c1 (stereo partly shown) [CDE-066]
PAI-1 inhibition in plasma with or without vitronectin (in words) [7]: inhibited PAI-1 equally well in plasma with or with out physiologic vitronectin

SMILES: O=C(O)C(=O)c1cn(Cc2ccccc2)c2ccc(-c3ccc(OC(F)(F)F)cc3)cc12 [PAI-039, tiplaxtinin]
effect on metabolism (lipid profile) in PAI-1 null mice (in words) [8]: no significant effect | inhibition of vitronectin bound PAI-1 (in words) [9]: does not inhibit vitronectin bound PAI-1 | PAI-1 inhibition in plasma with or without vitronectin (in words) [7]: only inhibitory in plasma that lacks vitronectin | HDL cholesterol increase [10]; 129: 45% | VLDL decrease [10]; 129: 35% | HDL cholesterol increase ([10]; C57BL/6J): 11% | VLDL decrease ([10]; C57BL/6J): 49% | plasma level of active PAI-1 ([10]; C57BL/6J mice, 5 mg PAI-039/gram of chow, two weeks): 0.37 ± 0.08 ng/mL | VLDL average decrease ([10]; average of C57BL/6J and 129): 42% | HDL higher, average increase for C57BL/6J and 129 mice ([10]; average of both strains): approximately 28%

IC50 ([1]; pH 6.5): 7360 nM | effect of pH on PAI-1 inhibition (in words) [1]: improved by increasing pH | IC50 ([1]; pH 7.5): 7150 nM | IC50 ([1]; pH 8.5): 9.1 nM | IC50 [11]: 2500 nM | screening hit: restoration of uPA activity [12]: positive hits | screening hit: restoration of β-trypsin activity [13]: demonstrate PAI-1 inhibitor activity | effect on PAI-1:PA complex formation (in words) [14]: converts PAI-1 to a substrate for PAs | IC50 [16]: 9680 nM
SMILES: O=C(OC[C@H]1O[C@@H](OC(=O)c2cc(O)c(O)c(OC(=O)c3cc(O)c(O)c(O)c3)c2)[C@H](OC(=O)c2cc(O)c(O)c(OC(=O)c3cc(O)c(O)c(O)c3)c2)[C@@H](OC(=O)c2cc(O)c(O)c(OC(=O)c3cc(O)c(O)c(O)c3)c2)[C@@H]1OC(=O)c1cc(O)c(O)c(OC(=O)c2cc(O)c(O)c(O)c2)c1)c1cc(O)c(O)c(OC(=O)c2cc(O)c(O)c(O)c2)c1 [Tannic acid, tannic acid]
inhibition of vitronectin-bound PAI-1 (in words) [15]: inhibited PAI-1 activity even when bound to vitronectin
